These compounds were tested against T1, Glutathione reductase, mitochondrial (Homo sapiens, UniProt P00390) (assay: Inhibition of human erythrocyte glutathione reductase).
T1 sequence (P00390 whole entry): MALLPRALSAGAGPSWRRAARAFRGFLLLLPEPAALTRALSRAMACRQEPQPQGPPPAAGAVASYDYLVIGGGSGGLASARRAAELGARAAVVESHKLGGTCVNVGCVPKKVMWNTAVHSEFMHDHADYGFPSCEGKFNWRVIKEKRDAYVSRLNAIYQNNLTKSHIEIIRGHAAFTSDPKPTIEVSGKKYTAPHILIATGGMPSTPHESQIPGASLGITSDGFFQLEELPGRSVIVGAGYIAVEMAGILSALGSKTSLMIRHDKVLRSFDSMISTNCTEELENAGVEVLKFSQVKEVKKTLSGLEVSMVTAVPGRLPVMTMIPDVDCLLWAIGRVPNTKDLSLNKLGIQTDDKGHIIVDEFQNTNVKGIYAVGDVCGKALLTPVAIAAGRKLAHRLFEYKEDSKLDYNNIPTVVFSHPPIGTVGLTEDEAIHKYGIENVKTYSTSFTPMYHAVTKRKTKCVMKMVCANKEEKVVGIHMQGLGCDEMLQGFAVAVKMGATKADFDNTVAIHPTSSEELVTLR

`O=[N+]([O-])O[C@@H]1CC2CCC1[C@@H]2O` (stereo partly drawn) and `O=[N+]([O-])O[C@H]1CC2CCC1[C@@H]2O` (stereo partly drawn) are within 1.5-fold of each other in IC50: 6.81 µM for the first, 7.13 µM for the second.

`O=[N+]([O-])O[C@H]1CC=CC[C@@H]1O` (racemic) and `O=[N+]([O-])O[C@H]1CC/C=C\CC[C@@H]1O` (racemic) are within 1.5-fold of each other in IC50: 23 µM for the first, 29 µM for the second.

`O=[N+]([O-])O[C@H]1CCCCCC[C@@H]1O` and `O=[N+]([O-])O[C@H]1CCCC[C@@H]1O` are within 1.5-fold of each other in IC50: 14.2 µM for the first, 21 µM for the second.

Compared with `O=[N+]([O-])O[C@@H](CO)c1ccccc1` (single isomer, unassigned), `O=[N+]([O-])OC1CC2c3ccccc3C1C2O` (stereo not drawn) is 1.6-fold lower in IC50: 16 µM for the first, 10.3 µM for the second. The second is the more potent here.

`O=[N+]([O-])O[C@@H]1CC[C@H](Br)[C@@H]2CC[C@H]1O2` was tested, and the IC50 was 11 µM.

`O=[N+]([O-])O[C@@H]1CC2CCC1[C@@H]2O` (stereo partly drawn) and `O=[N+]([O-])O[C@H]1CC2CCC1[C@@H]2O` (stereo partly drawn) are within 1.5-fold of each other in Ki: 11.7 µM for the first, 13.1 µM for the second.

`O=[N+]([O-])O[C@H]1CC=CC[C@@H]1O` (racemic) and `O=[N+]([O-])O[C@H]1CC/C=C\CC[C@@H]1O` (racemic) are within 1.5-fold of each other in Ki: 35.1 µM for the first, 44.3 µM for the second.

First: O=[N+]([O-])O[C@H]1CCCCCC[C@@H]1O
Second: O=[N+]([O-])O[C@H]1CCCC[C@@H]1O
The Ki of the first is 2-fold lower: 21.9 µM for the first, 43.7 µM for the second.

`O=[N+]([O-])O[C@@H](CO)c1ccccc1` (single isomer, unassigned) and `O=[N+]([O-])OC1CC2c3ccccc3C1C2O` (stereo not drawn) are within 1.5-fold of each other in Ki: 25.6 µM for the first, 18.8 µM for the second.

`O=[N+]([O-])O[C@@H]1CC[C@H](Br)[C@@H]2CC[C@H]1O2` showed a Ki of 21.5 µM.
